The structures appear in SMILES notation.

For one experiment, the target named is T1, SMBS on rat lung membranes (Rattus norvegicus, UniProt A0A8I6A822).
T1 construct: from tissue; host or cells: rat lung membranes (SD male rats)
T1 sequence (A0A8I6A822 27-587): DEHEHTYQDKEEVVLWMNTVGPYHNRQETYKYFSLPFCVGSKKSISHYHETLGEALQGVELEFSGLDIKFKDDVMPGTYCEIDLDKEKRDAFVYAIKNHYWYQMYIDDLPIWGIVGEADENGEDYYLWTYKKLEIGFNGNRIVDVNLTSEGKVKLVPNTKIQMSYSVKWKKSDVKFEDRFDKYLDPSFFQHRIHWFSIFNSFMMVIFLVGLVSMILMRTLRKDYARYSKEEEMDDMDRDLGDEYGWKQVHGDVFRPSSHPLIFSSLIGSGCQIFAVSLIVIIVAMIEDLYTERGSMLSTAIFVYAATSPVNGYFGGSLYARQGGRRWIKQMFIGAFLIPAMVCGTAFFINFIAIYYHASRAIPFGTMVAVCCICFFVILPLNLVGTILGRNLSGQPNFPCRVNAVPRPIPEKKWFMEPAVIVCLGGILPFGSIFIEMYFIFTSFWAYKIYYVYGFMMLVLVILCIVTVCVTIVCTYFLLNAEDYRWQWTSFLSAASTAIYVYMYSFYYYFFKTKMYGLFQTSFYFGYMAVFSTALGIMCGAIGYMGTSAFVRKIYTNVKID
Nature of the experiment: Receptor binding of the compound in rat lung membranes ([125I]-iodo-cyanopindolol ligand binding assay; Experiments 1 and 4). As to conditions: Table 39; compound concentration 30 μM; [125I]-iodo-cyanopindolol, rat lung membranes; Experiment 1; read-out: Binding Activity (30 μM). The procedure:
Evaluation Test on Receptor Binding of the Compound in Rat Lung Membranes:
This experiment was carried out according to the method disclosed in Sugasawa et al., (Sugasawa, T. et al., J. Biol. Chem., 272, 21244-21252(1997)).
Preparation of Rat Lung Membranes
The air tube and blood vessels were removed from the lung excised from SD male rats (7-weeks old when used, purchased from Charles River Japan, Inc.), and the lung was chopped, and washed with ice-cold tris-saline buffer (10 mM Tris-HCl, 154 mM sodium chloride, pH 7.4). The lung was homogenized by PHYSCOTRON (maximum speed: 1 minute) in a buffer for homogenization (tris-saline buffer containing 1 mM ethylenediaminetetraacetate (EDTA), 1 mM 4-(2-aminoethyl)-benzenesulfonyl fluoride (AEBSF), 5 μg/ml aprotinin, 5 μg/ml leupeptin) under ice-cooling. The mixture was centrifuged at a low speed (1500×g, 20 minutes, 4° C.), and the supernatant was super-centrifuged (100000×g, 20 minutes, 4° C.). The pellets thus obtained were suspended in tris-saline buffer, and kept at −80° C. The concentration of protein was measured by a Protein Assay Kit manufactured by Bio-Rad using bovine serum albumin (BSA) as standard.
To each well of a protein-non-adsorbent round-bottom 96-well assay plate (purchased from IWAKI GLASS CO., LTD.) was added tris-saline buffer (200 μl) containing 1 nM [^125I]-iodo-cyanopindolol (purchased from Amarsham), 10 μM serotonin, 20 μM dl-propranol, 10 μM phentoramine, 1.1 mM ascorbic acid and 100 μg lung membranes, and the mixture was mixed well by pipetting, and the plate was incubated at 37° C. for 30 minutes. Test compounds were dissolved in 100% dimethylsulfoxide, and added to the plate in an amount of 2 μl (final concentration of DMSO: 1%). In order to obtain non-specific binding, L-threo-3-(3,4-dihydroxyphenyl)-N-[3-(4-fluorophenyl)propyl]-serinepyrrolidinamide was added at a final concentration of 100 μM instead of test compound. During this period, 0.3% polyethyleneimine (PEI)/tris-saline buffer (100 μl) was added to a multiscreen plate (96-well B-glassfiber, milipore Cat. No. MAFB NOB10) and the plate was incubated for more than 30 minutes. The plate was washed by vacuum filtration (by adding ice-cold tris-saline buffer (200 μl) and then vacuum filtration), and the reaction solution on the 96-well assay plate was washed by vacuum filtration onto the multiscreen plate for four times. The B-glassfiber paper filter at the bottom of the multiscreen plate was punched out, and the γ-ray amount of [^125I]-iodo-cyanopindolol being trapped onto the paper filter was measured as binding amount. The binding amount in the presence of DMSO (final concentration: 1%) was regarded as total binding, and the binding in the presence of L-threo-3-(3,4-dihydroxyphenyl) -N-[3-(4-fluorophenyl)-propyl]serinepyrrolidinamide was regarded as non-specific binding. The value which is calculated by subtracting non-specific binding from total binding is specific binding. The binding activity of the compound can be calculated by the following equation, and expressed in a ratio of inhibiting the specific binding of [^125I]-iodo-cyanopindorol to SMBS on rat lung membranes.
In the same manner to in Experiment 1, the receptor binding assay was carried out on the present compounds by using the rat lung membranes.
Take `O=C(CO)NCCCn1c(-c2ccc(Br)cc2)csc1=Nc1ccccc1` [Example 169, N-{3-[4-(4-Bromophenyl)-2-(phenylimino)-thiazol-3(2H)-yl]propyl}-2-hydroxyacetamide]: the inhibition at 30 µM amounted to 58.6%.
On the same count and under the same terms, then `CNCCCn1c(-c2ccc(OC)cc2)csc1=Nc1ccccc1` [Example 152, N-{4-(4-Methoxyphenyl)-3-[3-(methylamino)propyl]thiazol-2(3H)-ylidene}aniline], with 76.5%.

Still in this experiment, the particulars now being: Table 42; concentration tested 30 μM; rat lung membranes; Experiment 4; read-out: Binding Activity (30 μM).
`CCOC(=O)NCCCn1c(-c2ccc(N3CCOCC3)cc2)cs/c1=N\c1ccc(F)cc1` [Example 250]: the inhibition at 30 µM came out at 98%.
`CCOC(=O)CNCCCn1c(-c2ccc(F)cc2)csc1=Nc1ccc(Cl)cc1OC` [Example 215, Ethyl N-{3-[2-[(4-chloro-2-methoxyphenyl)imino]-4-(4-fluorophenyl)-thiazol-3(2H)-yl]propyl}glycinate]: the inhibition at 30 µM was determined as 109%.
The same measure, in the same setting: then `CCOC(=O)CCNCCCn1c(-c2ccc(F)cc2)csc1=Nc1ccc(Cl)cc1OC` [Example 216, Ethyl N-{3-[2-[(4-chloro-2-methoxyphenylimino)]-4-(4-fluoro-phenyl)-thiazol-3 (2H)-yl]propyl}-β-alaninate], with 112%; and `CCNC(=O)NCCn1c(-c2ccc(N3CCOCC3)cc2)cs/c1=N\c1ccc(F)cc1` [Example 280], with 99%; and `O=C(NCCCn1c(-c2ccc(N3CCOCC3)cc2)cs/c1=N\c1ccc(F)cc1)NC1CCCCC1` [Example 285], with 35%.
Still for that read-out and setting: then `CN(C)C(=O)NCCCn1c(-c2ccc(N3CCOCC3)cc2)csc1=Nc1ccc(F)cc1` [Example 220, N′-{3-[2-[(4-Fluorophenyl)imino]-4-[4-(morpholino)phenyl]thiazol-3(2H)-yl]propyl}-N,N-dimethylurea], with 101%.
Same read-out and setting: with `CCNC(=O)NCCCn1c(-c2ccc(N3CCOCC3)cc2)cs/c1=N\c1ncccn1` [Example 297] the figure was 75%; with `CCCCCCNC(=O)NCCCn1c(-c2ccc(N3CCOCC3)cc2)cs/c1=N\c1ccc(F)cc1` [Example 284], 77%.
Regarding `O=C(NCCCn1c(-c2ccc(N3CCOCC3)cc2)cs/c1=N\c1ccc(F)cc1)NCc1ccccc1` [Example 290], the inhibition at 30 µM is 98%.
On the same count and under the same terms, with `O=C(COc1ccccc1)NCCCn1c(-c2ccc(N3CCOCC3)cc2)cs/c1=N\c1ccc(F)cc1` [Example 246] the figure was 80%; with `O=C(NCCCn1c(-c2ccc(N3CCOCC3)cc2)cs/c1=N\c1ccc(F)cc1)Nc1ccc(F)cc1` [Example 288], 34%.

Still in this experiment, the particulars now being: Table 43; concentration tested 30 μM; rat lung membranes; Experiment 4; read-out: Binding Activity (30 μM).
For `COCCNCCCn1c(-c2ccc(F)cc2)cs/c1=N\c1ccc(Cl)cc1OC` [Example 315], the inhibition at 30 µM came to 115%.
On to `COCCNC(=O)NCCCn1c(-c2ccc(OC(F)(F)F)cc2)cs/c1=N\Cc1ccc(Cl)cc1` [Example 409, N-{3-[2-[(4-Chlorobenzyl)imino]-4-[4-(trifluoromethoxy)phenyl]-1,3-thiazol-3(2H)-yl]propyl}-N′-(2-methoxyethyl)urea], for which the inhibition at 30 µM worked out at 89%.
In the case of `COCCOCCNCCCn1c(-c2ccc(F)cc2)cs/c1=N\c1ccc(Cl)cc1OC` [Example 316], the inhibition at 30 µM amounted to 102%.
The same measure, in the same setting: then `CN(C)C(=O)NCCCn1c(-c2ccc3c(c2)OCO3)cs/c1=N\c1ccc(OC(F)(F)F)cc1` [Example 309], with 100%; and `O=C(CN1CCCC1)NCCCn1c(-c2ccc(N3CCOCC3)cc2)csc1=Nc1ccc(F)cc1` [Example 357, N-{3-[2-[(4-Fluorophenyl)imino]-4-[4-(morpholino)phenyl]thiazol-3(2H)-yl]propyl}-2-(1-pyrrolidinyl)acetamide], with 86%.
On the same count and under the same terms, with `CCNC(=O)CNCCCn1c(-c2ccc(OC(F)(F)F)cc2)cs/c1=N\Cc1ccc(Cl)cc1` [Example 417, N^2-{3-[2-[(4-Chlorobenzyl)imino]-4-[4-(trifluoromethoxy)phenyl]-1,3-thiazol-3(2H)-yl]propyl}-N^1-ethylglycinamide] the figure was 113%.
The same measure, in the same setting: then `COc1ccc(C/N=c2\scc(-c3ccc(OC(F)(F)F)cc3)n2CCCN)c(OC)c1` [Example 362, 3-[2-[(2,4-Dimethoxybenzyl)imino]-4-[4-(trifluoromethoxy)phenyl]-1,3-thiazol-3(2H)-yl]-1-propanamine], with 117%; and `CCNC(=O)NCCCn1c(-c2ccc(F)cc2)cs/c1=N\Cc1ccc(Cl)cc1OC` [Example 402, N-{3-[2-[(4-Chloro-2-methoxybenzyl)imino]-4-(4-fluorophenyl)-1,3-thiazol-3(2H)-yl]propyl}-N′-ethylurea], with 79%; and `CCNC(=O)NCCCn1c(CN(C)Cc2ccc(Cl)cc2)cs/c1=N\c1ccc(OC(F)(F)F)cc1` [Example 303], with 23%.

Staying with this experiment, now noted: Table 44; concentration tested 30 μM; rat lung membranes; Experiment 4; read-out: Binding Activity (30 μM).
As for `CCS(=O)(=O)NCCCn1c(-c2ccc(OC(F)(F)F)cc2)cs/c1=N\Cc1ccc(Cl)cc1` [Example 430, N′-{3-[2-[(4-Chlorobenzyl)imino]-4-[4-(trifluoromethoxy)phenyl]-1,3-thiazol-3(2H)-yl]propyl}ethanesulfonamide], the inhibition at 30 µM is 89%.
For `NCCCn1c(-c2ccc(OC(F)(F)F)cc2)cs/c1=N\C(=O)c1ccco1` [Example 441], the inhibition at 30 µM is 61%.
Regarding `COc1ccc(C(=O)/N=c2\scc(C(=O)Nc3ccc(Cl)cc3)n2CCCN)c(OC)c1` [Example 431, 3-(3-Aminopropyl)-N-(4-chlorophenyl)-2-[(2,4-dimethoxybenzoyl)imino]-2,3-dihydro-1,3-thiazol-4-carboxamide], the inhibition at 30 µM is 95%.
Same read-out and setting: with `COc1ccc(C(=O)/N=c2\scc(C(=O)NCCCCc3ccccc3)n2CCCN)c(OC)c1` [Example 435] the figure was 93%; with `O=C(O)CCNCCCn1c(-c2ccc(OC(F)(F)F)cc2)cs/c1=N\Cc1ccc(Cl)cc1` [Example 428], 103%; with `COc1ccc(C/N=c2\scc(-c3ccc(OC(F)(F)F)cc3)n2CCCNCC(F)(F)F)c(OC)c1` [Example 413], 96%.
Still for that read-out and setting: then `COc1cc(Cl)ccc1C/N=c1\scc(-c2ccc(F)cc2)n1CCCNC(=N)N` [Example 429, N′-{3-[2-[(4-Chloro-2-methoxybenzyl)imino]-4-(4-fluorophenyl)-1,3-thiazol-3(2H)-yl]propyl}guanidine], with 103%; and `CC(=O)NCCCn1c(-c2ccc(OC(F)(F)F)cc2)cs/c1=N\C(=O)c1ccccn1` [Example 449], with 71%.

Still in this experiment, the particulars now being: ratio of inhibiting the specific binding of [125I]-iodo-cyanopindolol; test concentration 30 μM; rat lung membranes; read-out: Binding Activity (30 μM).
On to `COc1ccc(C(=O)/N=c2\scc(-c3ccc(OC(F)(F)F)cc3)n2CCCNCC(N)=O)c(OC)c1` [Example 521], for which the inhibition at 30 µM stood at 74%.
On the same count and under the same terms, then `COc1ccc(C(=O)/N=c2\scc(C(=O)NCc3ccc(Cl)cc3)n2CCCNC(C)=O)c(OC)c1` [Example 463], with 10%; and `COc1ccc(C(=O)/N=c2\scc(-c3ccc(OC(F)(F)F)cc3)n2CCCNC(=N)N)c(OC)c1` [Example 534], with 87%.
Still for that read-out and setting: with `COc1ccc(C(=O)/N=c2\scc(-c3ccc(OC(F)(F)F)cc3)n2CCCNC(=O)N(C)C)c(OC)c1` [Example 508] the figure was 102%; with `COc1ccc(C(=O)/N=c2\scc(-c3ccc(OC(F)(F)F)cc3)n2CCCNCC(=O)O)c(OC)c1` [Example 531], 32%; with `CCNC(=S)NCCCn1c(-c2ccc(OC(F)(F)F)cc2)cs/c1=N\C(=O)c1ccc(OC)cc1OC` [Example 494], 65%.

Staying with this experiment, now noted: read-out: Binding Activity (30 μM).
On to `O=C(NCCCl)NCCCn1c(-c2ccc(OC(F)(F)F)cc2)cs/c1=N\Cc1ccc(Cl)cc1` [Example 390], for which the inhibition at 30 µM was 120%.
